# Measured values as given in patent US8940739B2, “Compound of a reverse-turn mimetic and a production method and use therefor” (JW Pharmaceutical Corporation, priority 2010, dated 2015).
# System: MV-4-11 (human, Acute Myeloid Leukemia cell line) cells
# Experiment: Cell growth inhibition assay, GI50 of MV-4-11
# Format: cell-based
# Conditions: Homo sapiens, MV4-11, 72 h, MV-4-11 cells
# Method: The anti-proliferative activity (cell growth inhibition assay) of the compounds according to the present invention against AML (Acute Myeloid Leukemia) cancer cells was measured. […] The lower the GI50 value, the higher the anti-proliferative activity.
# A cell growth Inhibition assay was performed to investigate the rate of inhibition of cell proliferation by the compounds of the present invention. MV-4-11 (human, Acute Myeloid Leukemia cell line) cells were cultured in Iscove's modified Dulbecco's medium (IMDM) including 10% fetal bovine serum (FBS), 1× penicillin/streptomycin (10,000 units/ml Penicillin, […] Streptomycin in 0.85% NaCl). MV-4-11 cells were harvested with the IMDM and 5×10^4 cells/well were transferred to each well of 96-well culture plates (Nunc, #167008).
# The compounds of Examples 1 to 5 were exposed to serial dilution and duplicated for each concentration. For the serial dilution, the compounds of the present invention were repeatedly diluted with the same volume of media onto 96-well assay block (costar, #3956). After the dilution, each compound was added to each well.
# Also, the background absorbance was measured during the treatment with the test compounds by replacing the test compound with IMDM in the negative control plate. The plates were incubated for three days (72 hours) at 37 in the humidified incubator containing 5% CO2. On the last day, 20 µl of a CellTiter 96 Aqueous One Solution (Promega #G3581) was added to the culture in each well and the plates were incubated for a few hours at 37 in the humidified incubator containing 5% CO2. After the incubation, the absorbance of each cell was measured at 490 nm using an EnVision (Perkinelmer, USA).
# The GI50 values were calculated using a Prism 3.0 program.
row,Compound,GI50
1,C=CCN1CC(=O)N2[C@@H](Cc3ccc(O)cc3)C(=O)N(Cc3cccc4c(-c5ccc(NC(=O)NC6CCN(C(C)=O)CC6)cc5)cn(C)c34)C[C@@H]2N1C(=O)NCc1ccccc1 [Compound D-84],1.7 nM
2,C=CCN1CC(=O)N2[C@@H](Cc3ccc(O)cc3)C(=O)N(Cc3cccc4c(C(=O)N5CCN(Cc6ccc(OC)cc6)CC5)cn(C)c34)C[C@@H]2N1C(=O)NCc1ccccc1 [Compound E-36],8.4 nM
3,C=CCN1CC(=O)N2[C@@H](Cc3ccc(O)cc3)C(=O)N(Cc3cccc4c(-c5ccc(C(N)=O)cc5)cn(C)c34)C[C@@H]2N1C(=O)NCc1ccccc1 [Compound D-7],1.2 nM
4,C=CCN1CC(=O)N2[C@@H](Cc3ccc(O)cc3)C(=O)N(Cc3cccc4c(C(=O)N5CCN(Cc6ccc(C#N)cc6)CC5)cn(C)c34)C[C@@H]2N1C(=O)NCc1ccccc1 [Compound E-33],9 nM
5,C=CCN1CC(=O)N2[C@@H](Cc3ccc(O)cc3)C(=O)N(Cc3cccc4c(-c5ccc(NC(=O)NC6CCCCC6)nc5)cn(C)c34)C[C@@H]2N1C(=O)NCc1ccccc1 [Compound D-92],19 nM
6,C=CCN1CC(=O)N2[C@@H](Cc3ccc(O)cc3)C(=O)N(Cc3cccc4c(-c5ccc(C(=O)N6CCN(C)CC6)o5)cn(C)c34)C[C@@H]2N1C(=O)NCc1ccccc1 [Compound D-105],3.7 nM
7,C=CCN1CC(=O)N2[C@@H](Cc3ccc(O)cc3)C(=O)N(Cc3cccc4c(-c5ccc(C(=O)NC)cc5)cn(C)c34)C[C@@H]2N1C(=O)NCc1ccccc1 [Compound D-8],1.2 nM
8,C=CCN1CC(=O)N2[C@@H](Cc3ccc(O)cc3)C(=O)N(Cc3cccc4c(-c5ccc(NC(=O)N6CCC(N7CCOCC7)CC6)cc5)cn(C)c34)C[C@@H]2N1C(=O)NCc1ccccc1 [Compound D-64],1.2 nM
9,C=CCN1CC(=O)N2[C@@H](Cc3ccc(O)cc3)C(=O)N(Cc3cccc4c(C(=O)N5CCN(C(=O)OC(C)(C)C)CC5)cn(C)c34)C[C@@H]2N1C(=O)NCc1ccccc1 [Compound E-1],5.8 nM
10,C=CCN1CC(=O)N2[C@@H](Cc3ccc(O)cc3)C(=O)N(Cc3cccc4c(-c5cccc(C(=O)N6CCC(O)CC6)c5)cn(C)c34)C[C@@H]2N1C(=O)NCc1ccccc1 [Compound D-6],1.7 nM
11,C=CCN1CC(=O)N2[C@@H](Cc3ccc(O)cc3)C(=O)N(Cc3cccc4c(-c5ccc(C(=O)N(C)OC)cc5)cn(C)c34)C[C@@H]2N1C(=O)NCc1ccccc1 [Compound D-47],1.3 nM
12,C=CCN1CC(=O)N2[C@@H](Cc3ccc(O)cc3)C(=O)N(Cc3cccc4c(-c5ccc(NC(=O)c6ccc(CN)cc6)cc5)cn(C)c34)C[C@@H]2N1C(=O)NCc1ccccc1 [Compound D-53],1.2 nM
13,C=CCN1CC(=O)N2[C@@H](Cc3ccc(O)cc3)C(=O)N(Cc3cccc4c(-c5ccc(C(=O)Nc6ccc(CN)cc6)cc5)cn(C)c34)C[C@@H]2N1C(=O)NCc1ccccc1 [Compound D-19],2 nM
14,C=CCN1CC(=O)N2[C@@H](Cc3ccc(O)cc3)C(=O)N(Cc3cccc4c(-c5ccc(C(=O)NNC(C)C)cc5)cn(C)c34)C[C@@H]2N1C(=O)NCc1ccccc1 [Compound D-35],15 nM
15,C=CCN1CC(=O)N2[C@@H](Cc3ccc(O)cc3)C(=O)N(Cc3cccc4c(C(=O)N5CCN(C6CCCC6)CC5)cn(C)c34)C[C@@H]2N1C(=O)NCc1ccccc1 [Compound E-18],20.9 nM
16,C=CCN1CC(=O)N2[C@@H](Cc3ccc(O)cc3)C(=O)N(Cc3cccc4c(-c5ccc(NC(=O)NCC)nc5)cn(C)c34)C[C@@H]2N1C(=O)NCc1ccccc1 [Compound D-94],1.5 nM
17,C=CCN1CC(=O)N2[C@@H](Cc3ccc(O)cc3)C(=O)N(Cc3cccc4c(-c5ccc(C(=O)NC6CCC(N)CC6)cc5)cn(C)c34)C[C@@H]2N1C(=O)NCc1ccccc1 (stereo partly drawn) [Compound D-30],1.5 nM
18,C=CCN1CC(=O)N2[C@@H](Cc3ccc(O)cc3)C(=O)N(Cc3cccc4c(-c5ccc(NC(=O)C6CCCN(C)C6)cc5)cn(C)c34)C[C@@H]2N1C(=O)NCc1ccccc1 (stereo partly drawn) [Compound D-63],1.3 nM
19,C=CCN1CC(=O)N2[C@@H](Cc3ccc(O)cc3)C(=O)N(Cc3cccc4c(-c5ccc(NC(=O)N6CC(N7CCC(OC)CC7)C6)cc5)cn(C)c34)C[C@@H]2N1C(=O)NCc1ccccc1 [Compound D-66-1],1.4 nM
20,C=CCN1CC(=O)N2[C@@H](Cc3ccc(O)cc3)C(=O)N(Cc3cccc4c(-c5cccc(C(=O)N6CCOCC6)c5)cn(C)c34)C[C@@H]2N1C(=O)NCc1ccccc1 [Compound D-1],1.8 nM
21,C=CCN1CC(=O)N2[C@@H](Cc3ccc(O)cc3)C(=O)N(Cc3cccc4c(-c5ccc(NC(=O)N6CCC(N(C)C)CC6)cc5)cn(C)c34)C[C@@H]2N1C(=O)NCc1ccccc1 [Compound D-65],1.3 nM
22,C=CCN1CC(=O)N2[C@@H](Cc3ccc(O)cc3)C(=O)N(Cc3cccc4c(C(=O)N5CCC(NC(=O)OC(C)(C)C)CC5)cn(C)c34)C[C@@H]2N1C(=O)NCc1ccccc1 [Compound E-56],3.1 nM
23,C=CCN1CC(=O)N2[C@@H](Cc3ccc(O)cc3)C(=O)N(Cc3cccc4c(-c5ccc(NC(=O)Nc6ccc(OC)cc6)nc5)cn(C)c34)C[C@@H]2N1C(=O)NCc1ccccc1 [Compound D-86],4.9 nM
24,C=CCN1CC(=O)N2[C@@H](Cc3ccc(O)cc3)C(=O)N(Cc3cccc4c(-c5ccc(C(=O)N(C)CCN(C)C)cc5)cn(C)c34)C[C@@H]2N1C(=O)NCc1ccccc1 [Compound D-40],1.2 nM

# Continued, values first:
row,GI50,Compound
1,5 nM,C=CCN1CC(=O)N2C(Cc3ccc(O)cc3)C(=O)N(Cc3cccc4c(C(=O)Nc5ccc(NCCN6CCN(C)CC6)nc5)cn(C)c34)CC2N1C(=O)NCc1ccccc1 (stereo not shown) [Compound G-30]
2,11.6 nM,C=CCN1CC(=O)N2[C@@H](Cc3ccc(O)cc3)C(=O)N(Cc3cccc4c(C(=O)N(C)Cc5cccnc5)cn(C)c34)C[C@@H]2N1C(=O)NCc1ccccc1 [Compound F-41]
3,17.8 nM,C=CCN1CC(=O)N2[C@@H](Cc3ccc(O)cc3)C(=O)N(Cc3cccc4c(C(=O)N(C)Cc5ccccn5)cn(C)c34)C[C@@H]2N1C(=O)NCc1ccccc1 [Compound F-43]
4,7.4 nM,C=CCN1CC(=O)N2C(CN(Cc3cccc4c(C(=O)Nc5ccc(N)cc5)cn(C)c34)C(=O)[C@@H]2Cc2ccc(O)cc2)N1C(=O)NCc1ccccc1 (stereo partly shown) [Compound G-8]
5,2 nM,C=CCN1CC(=O)N2C(Cc3ccc(O)cc3)C(=O)N(Cc3cccc4c(C(=O)Nc5ccc(N(C)CC(C)C)nc5)cn(C)c34)CC2N1C(=O)NCc1ccccc1 (stereo not shown) [Compound G-17]
6,1.3 nM,C=CCN1CC(=O)N2[C@@H](Cc3ccc(O)cc3)C(=O)N(Cc3cccc4c(C(=O)N(C)Cc5ccc(N(C)C)cc5)cn(C)c34)C[C@@H]2N1C(=O)NCc1ccccc1 [Compound F-46]
7,1.3 nM,C=CCN1CC(=O)N2C(CN(Cc3cccc4c(C(=O)Nc5ccc(N6CCC(N7CCOCC7)CC6)nc5)cn(C)c34)C(=O)[C@@H]2Cc2ccc(O)cc2)N1C(=O)NCc1ccccc1 (stereo partly shown) [Compound G-56]
8,1.2 nM,C=CCN1CC(=O)N2C(CN(Cc3cccc4c(C(=O)Nc5ccc(N(C)C)cc5)cn(C)c34)C(=O)[C@@H]2Cc2ccc(O)cc2)N1C(=O)NCc1ccccc1 (stereo partly shown) [Compound G-14]
9,1.3 nM,C=CCN1CC(=O)N2C(CN(Cc3cccc4c(C(=O)Nc5ccc(N6CCN(C)CC6)cc5)cn(C)c34)C(=O)[C@@H]2Cc2ccc(O)cc2)N1C(=O)NCc1ccccc1 (stereo partly shown) [Compound G-40]

# Target: cDNA-expressed human hepatic CYP3A4 (Homo sapiens (Human), UniProt P08684)
# Experiment: Measurement of CYP (IC50 of P450 CYP3A4), BFC substrate
# Format: in vitro ADME
# Conditions: 20 minutes
# Method: The compounds of the present invention had lower P450 CYP3A4 inhibitory activity (higher IC50). Lower CYP3A4 inhibitory activity means that the compounds of the present invention cause fewer side-effects from the pharmacological point of view.
# This assay was performed in a 200 l volume in 96-well microtiter plates using cDNA-expressed human hepatic CYP3A4 (supersome, BD Gentest™ #456202). As a substrate for CYP3A4, 7-benzyloxy-4-trifluoromethyl-coumarin (BFC) was used. The compounds of Examples 1 to 5 and the substrate BFC were dissolved in 100% acetonitrile. The final volume of acetonitrile of the incubation mixture was less than 1% (volume/volume). A potassium phosphate buffer (pH 7.4, final concentration 0.1M), MgCl2 (final concentration 8.3 mM), EDTA (final concentration 1.67 mM), an inventive compound stock solution, CYP3A4 supersome, and NADPH (final concentration 0.25 mM) were added to each well. The reaction was initiated by adding the substrate (BFC, final concentration 30 µM) at 37. The incubation was performed for 20 minutes and then the reaction was terminated by the addition of 75 μl of acetonitrile: 0.5 M tris-base=4:1 (volume/volume).
# Then, a fluorescent signal was measured using a fluorometer. A BFC metabolite, 7-hydroxy-4-trifluoromethyl-coumarin, was measured using an excitation wavelength of 409 nm and an emission wavelength of 530 nm.
# Chain of cDNA-expressed human hepatic CYP3A4 (P08684 whole entry): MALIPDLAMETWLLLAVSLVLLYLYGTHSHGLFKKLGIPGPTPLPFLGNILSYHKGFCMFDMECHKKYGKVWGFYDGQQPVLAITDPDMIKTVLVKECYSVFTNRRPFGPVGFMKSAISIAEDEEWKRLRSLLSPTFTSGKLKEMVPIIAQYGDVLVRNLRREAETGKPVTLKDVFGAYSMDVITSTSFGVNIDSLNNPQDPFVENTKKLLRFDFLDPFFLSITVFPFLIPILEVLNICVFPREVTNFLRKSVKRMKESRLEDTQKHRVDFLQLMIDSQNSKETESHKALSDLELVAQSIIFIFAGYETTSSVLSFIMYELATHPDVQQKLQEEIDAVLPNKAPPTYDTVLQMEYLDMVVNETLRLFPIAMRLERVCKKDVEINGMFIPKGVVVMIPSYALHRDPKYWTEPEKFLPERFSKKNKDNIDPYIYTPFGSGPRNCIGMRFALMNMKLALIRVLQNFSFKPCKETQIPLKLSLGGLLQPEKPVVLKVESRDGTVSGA
row,Compound,IC50
1,C=CCN1CC(=O)N2[C@@H](Cc3ccc(O)cc3)C(=O)N(Cc3cccc4c(C(=O)N5CCN6CCN(CC)CC6C5)cn(C)c34)C[C@@H]2N1C(=O)NCc1ccccc1 (stereo partly shown) [Compound E-50],5040 nM
2,C=CCN1CC(=O)N2[C@@H](Cc3ccc(O)cc3)C(=O)N(Cc3cccc4c(C(=O)N5CCC(C(=O)N(C)CCN(C)C)CC5)cn(C)c34)C[C@@H]2N1C(=O)NCc1ccccc1 [Compound E-54],4970 nM

# More lines, now with the values ahead:
row,IC50,Compound
1,3460 nM,C=CCN1CC(=O)N2[C@@H](Cc3ccc(O)cc3)C(=O)N(Cc3cccc4c(C(=O)NCCCC(=O)OC)cn(C)c34)C[C@@H]2N1C(=O)NCc1ccccc1 [Compound F-23]
2,2330 nM,C=CCN1CC(=O)N2[C@@H](Cc3ccc(O)cc3)C(=O)N(Cc3cccc4c(C(=O)N(C)NC)cn(C)c34)C[C@@H]2N1C(=O)NCc1ccccc1 [Compound F-53]
